Measured values reported in article PMC10257182, “Discovery of senolytics using machine learning” (Nature Communications, 2023).
Structures can show the parent of a compound that is named as a salt. Where two headings read alike, the source gives them in different places.

Experiments:
Assay type in all cases: cell-based, human
[1] = tested on: senescent A549 cells (etoposide-induced); test: Nuclei count senolytic assay, therapy-induced senescence (TIS) model, senescent cells; conditions: Homo sapiens, A549, read-out: Mean % Cell Survival
Outline: (§1)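 Nuclei counting by high-content imaging after 72 h compound treatment of senescent (etoposide-induced) versus control A549 cells. Top dose 10 μM final, lowest 10 nM.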

[2] = tested on: non-senescent control A549 cells; test: Nuclei count senolytic assay, TIS model, non-senescent control cells; conditions: Homo sapiens, A549, read-out: Mean % Cell Survival
Outline: as §1

[3] = tested on: senescent IMR90 ER:RAS cells (4-OHT-induced); test: Nuclei count (Hoechst, high content imaging) senolytic assay, oncogene-induced senescence (OIS) model, senescent cells
Outline: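 We compared total nuclei counts between senescent and non-senescent IMR90 ER:RAS cells after 72 h compound exposure (10 nM–10 μM). Hoechst staining followed fixation and permeabilisation; ouabain served as senolytic positive control.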

## C[C@H](CCC(=O)NCCS(=O)(=O)O)[C@H]1CC[C@H]2[C@@H]3[C@H](O)C[C@@H]4C[C@H](O)CC[C@]4(C)[C@H]3C[C@H](O)[C@]12C [Taurocholic acid sodium, taurocholic acid sodium salt hydrate]
[1]
  viability at 0.01 µM: 103%
  viability at 0.0219 µM: 108%
  viability at 0.0468 µM: 103%
  viability at 0.1 µM: 100%
  viability at 0.219 µM: 109%
  viability at 0.468 µM: 113%
  viability at 1 µM: 112%
  viability at 2.19 µM: 106%
  viability at 4.68 µM: 109%
  viability at 10 µM: 107%
[2]
  viability at 0.01 µM: 66.6%
  viability at 0.0219 µM: 32.6%
  viability at 0.0468 µM: 97.7%
  viability at 0.1 µM: 29.1%
  viability at 0.219 µM: 62.6%
  viability at 0.468 µM: 97.8%
  viability at 1 µM: 95.9%
  viability at 2.19 µM: 69.4%
  viability at 4.68 µM: 66.2%
  viability at 10 µM: 96.3%
[3]; Homo sapiens, IMR-90, 72 h, read-out: Mean % Cell Survival, Senescent, log (dose) [M] -5, 72 h, mean n=3 (Fig 3C)
  viability at 10 µM: 110%
[3]; Homo sapiens, IMR-90, 72 h, read-out: Mean % Cell Survival, Senescent, log (dose) [M] -5.33, 72 h, mean n=3 (Fig 3C)
  viability at 4.677 µM: 132%
[3]; Homo sapiens, IMR-90, 72 h, read-out: Mean % Cell Survival, Senescent, log (dose) [M] -5.66, 72 h, mean n=3 (Fig 3C)
  viability at 2.188 µM: 115%
[3]; Homo sapiens, IMR-90, 72 h, read-out: Mean % Cell Survival, Senescent, log (dose) [M] -6, 72 h, mean n=3 (Fig 3C)
  viability at 1 µM: 123%
[3]; Homo sapiens, IMR-90, 72 h, read-out: Mean % Cell Survival, Senescent, log (dose) [M] -6.33, 72 h, mean n=3 (Fig 3C)
  viability at 0.4677 µM: 106%
[3]; Homo sapiens, IMR-90, 72 h, read-out: Mean % Cell Survival, Senescent, log (dose) [M] -6.66, 72 h, mean n=3 (Fig 3C)
  viability at 0.2188 µM: 99.8%
[3]; Homo sapiens, IMR-90, 72 h, read-out: Mean % Cell Survival, Senescent, log (dose) [M] -7, 72 h, mean n=3 (Fig 3C)
  viability at 0.1 µM: 96.6%
[3]; Homo sapiens, IMR-90, 72 h, read-out: Mean % Cell Survival, Senescent, log (dose) [M] -7.33, 72 h, mean n=3 (Fig 3C)
  viability at 0.04677 µM: 108%
[3]; Homo sapiens, IMR-90, 72 h, read-out: Mean % Cell Survival, Senescent, log (dose) [M] -7.66, 72 h, mean n=3 (Fig 3C)
  viability at 0.02188 µM: 112%
[3]; Homo sapiens, IMR-90, 72 h, read-out: Mean % Cell Survival, Senescent, log (dose) [M] -8, 72 h, mean n=3 (Fig 3C)
  viability at 0.01 µM: 107%
[3]; Homo sapiens, IMR-90, read-out: % Cell Survival, Senescent cells, log (dose) [M] -6.66, individual replicates, SUP FIG 4C
  viability at 0.2188 µM: 105%
[3]; Homo sapiens, IMR-90, read-out: % Cell Survival, Senescent cells, log (dose) [M] -7, individual replicates, SUP FIG 4C
  viability at 0.1 µM: 101%
[3]; Homo sapiens, IMR-90, read-out: % Cell Survival, Senescent, log (dose) [M] -5.33
  viability at 4.677 µM: 118%
[3]; experimental screen, OIS IMR90 ER:RAS
  senolytic activity (in words): inactive
